Measurements as given in ChEMBL document CHEMBL2016457, “Discovery of potent and orally bioavailable 17β-hydroxysteroid dehydrogenase type 3 inhibitors” (Bioorg Med Chem, 2012).
Calls of active or inactive are those of the source. No rule for the calls is given here.

Key:
[1] = molecular target: T1, Glucocorticoid receptor (Homo sapiens) (UniProt P04150); assay: Agonist activity at human Glucocorticoid receptor expressed in human HeLa cells assessed as DHT-induced response after 40 hrs by luciferase/beta-galactosidase-based reporter gene assay; format: functional, cell-based
T1 sequence (whole entry): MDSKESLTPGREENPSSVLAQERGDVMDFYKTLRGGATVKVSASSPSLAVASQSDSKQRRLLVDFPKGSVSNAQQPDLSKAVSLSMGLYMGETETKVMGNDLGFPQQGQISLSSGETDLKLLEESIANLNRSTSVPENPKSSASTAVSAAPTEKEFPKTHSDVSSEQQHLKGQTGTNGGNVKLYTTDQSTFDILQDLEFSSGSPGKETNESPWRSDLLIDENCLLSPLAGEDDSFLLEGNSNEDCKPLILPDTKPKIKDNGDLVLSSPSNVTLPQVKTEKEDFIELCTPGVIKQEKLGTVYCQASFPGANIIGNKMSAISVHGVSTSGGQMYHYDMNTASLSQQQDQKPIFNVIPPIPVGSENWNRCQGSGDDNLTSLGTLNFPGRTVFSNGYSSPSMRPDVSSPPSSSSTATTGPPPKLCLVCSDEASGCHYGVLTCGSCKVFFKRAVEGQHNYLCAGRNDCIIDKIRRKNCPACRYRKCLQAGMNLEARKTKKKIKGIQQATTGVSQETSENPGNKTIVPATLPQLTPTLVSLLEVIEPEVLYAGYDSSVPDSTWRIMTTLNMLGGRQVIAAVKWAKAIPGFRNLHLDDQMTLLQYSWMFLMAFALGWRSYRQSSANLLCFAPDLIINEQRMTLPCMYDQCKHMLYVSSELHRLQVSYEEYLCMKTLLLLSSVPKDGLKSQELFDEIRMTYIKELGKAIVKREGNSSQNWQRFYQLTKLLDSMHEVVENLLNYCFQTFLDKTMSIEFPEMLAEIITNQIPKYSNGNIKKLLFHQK

[2] = molecular target: T2, Androgen receptor (Homo sapiens) (UniProt P10275); assay: Antagonist activity at human androgen receptor expressed in human HeLa cells assessed as inhibition of DHT-induced response after 40 hrs by luciferase/beta-galactosidase-based reporter gene assay; format: functional, cell-based
T2 sequence (whole entry): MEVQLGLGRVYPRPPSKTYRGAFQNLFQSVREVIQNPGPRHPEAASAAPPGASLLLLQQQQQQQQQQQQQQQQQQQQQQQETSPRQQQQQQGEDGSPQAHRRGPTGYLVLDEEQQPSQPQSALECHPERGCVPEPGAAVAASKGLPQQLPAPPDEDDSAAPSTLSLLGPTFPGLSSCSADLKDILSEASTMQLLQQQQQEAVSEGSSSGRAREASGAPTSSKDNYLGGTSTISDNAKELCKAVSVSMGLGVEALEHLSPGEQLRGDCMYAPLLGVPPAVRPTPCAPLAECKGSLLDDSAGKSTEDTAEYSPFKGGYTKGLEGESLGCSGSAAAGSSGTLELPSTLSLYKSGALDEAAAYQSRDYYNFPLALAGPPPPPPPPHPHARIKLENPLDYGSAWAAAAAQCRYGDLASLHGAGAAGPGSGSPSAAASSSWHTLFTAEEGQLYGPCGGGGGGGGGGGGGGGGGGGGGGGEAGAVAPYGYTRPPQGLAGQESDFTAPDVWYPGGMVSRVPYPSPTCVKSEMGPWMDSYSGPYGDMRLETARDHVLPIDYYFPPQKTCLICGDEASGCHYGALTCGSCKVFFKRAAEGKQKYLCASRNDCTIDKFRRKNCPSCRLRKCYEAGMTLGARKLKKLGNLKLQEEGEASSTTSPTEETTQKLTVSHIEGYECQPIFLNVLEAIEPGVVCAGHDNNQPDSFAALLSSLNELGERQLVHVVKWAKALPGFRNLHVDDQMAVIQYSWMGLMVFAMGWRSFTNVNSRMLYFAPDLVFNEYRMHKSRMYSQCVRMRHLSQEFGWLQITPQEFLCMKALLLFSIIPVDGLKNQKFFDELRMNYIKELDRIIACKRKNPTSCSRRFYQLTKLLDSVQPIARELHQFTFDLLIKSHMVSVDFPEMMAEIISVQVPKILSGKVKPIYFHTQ

[3] = molecular target: T3, 17-beta-hydroxysteroid dehydrogenase type 2 (Homo sapiens) (UniProt P37059); assay: Inhibition of human recombinant 17-beta-HSD2 expressed in human HeLa cells using estradiol as substrate preincubated for 30 mins prior substrate addition measured after 120 mins by spectrophotometry; format: cell-based
T3 sequence (whole entry): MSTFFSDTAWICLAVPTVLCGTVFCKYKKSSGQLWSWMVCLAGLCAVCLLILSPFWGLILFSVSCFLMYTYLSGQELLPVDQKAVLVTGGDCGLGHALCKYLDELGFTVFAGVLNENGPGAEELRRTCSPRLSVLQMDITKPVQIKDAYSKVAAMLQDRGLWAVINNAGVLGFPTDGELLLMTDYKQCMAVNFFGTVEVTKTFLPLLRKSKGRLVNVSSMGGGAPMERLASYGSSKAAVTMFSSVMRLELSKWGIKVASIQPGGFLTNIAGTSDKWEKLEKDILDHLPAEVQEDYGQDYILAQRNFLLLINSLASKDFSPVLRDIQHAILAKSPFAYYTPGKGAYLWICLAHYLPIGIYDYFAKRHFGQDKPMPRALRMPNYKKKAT

[4] = molecular target: T4, 17-beta-hydroxysteroid dehydrogenase type 3 (Homo sapiens, UniProt P37058)
T4 sequence (P37058 whole entry): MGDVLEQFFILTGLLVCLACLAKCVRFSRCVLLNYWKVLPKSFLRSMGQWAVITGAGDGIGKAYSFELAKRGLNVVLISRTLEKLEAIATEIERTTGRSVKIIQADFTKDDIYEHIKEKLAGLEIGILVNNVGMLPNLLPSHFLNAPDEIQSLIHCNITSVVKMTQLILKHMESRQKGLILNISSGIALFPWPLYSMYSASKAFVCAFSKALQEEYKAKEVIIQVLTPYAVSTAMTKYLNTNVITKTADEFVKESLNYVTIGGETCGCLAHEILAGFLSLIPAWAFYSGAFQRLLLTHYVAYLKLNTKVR
Description: Inhibition of human recombinant 17-beta-HSD3 expressed in human HeLa cells using androstenedione as substrate preincubated for 30 mins prior substrate addition measured after 120 mins by spectrophotometry

[5] = molecular target: T5, Estrogen receptor (Homo sapiens) (UniProt P03372); assay: Agonist activity at human Estrogen receptor ERalpha expressed in human HeLa cells assessed as DHT-induced response after 40 hrs by luciferase/beta-galactosidase-based reporter gene assay; format: functional, cell-based
T5 sequence (whole entry): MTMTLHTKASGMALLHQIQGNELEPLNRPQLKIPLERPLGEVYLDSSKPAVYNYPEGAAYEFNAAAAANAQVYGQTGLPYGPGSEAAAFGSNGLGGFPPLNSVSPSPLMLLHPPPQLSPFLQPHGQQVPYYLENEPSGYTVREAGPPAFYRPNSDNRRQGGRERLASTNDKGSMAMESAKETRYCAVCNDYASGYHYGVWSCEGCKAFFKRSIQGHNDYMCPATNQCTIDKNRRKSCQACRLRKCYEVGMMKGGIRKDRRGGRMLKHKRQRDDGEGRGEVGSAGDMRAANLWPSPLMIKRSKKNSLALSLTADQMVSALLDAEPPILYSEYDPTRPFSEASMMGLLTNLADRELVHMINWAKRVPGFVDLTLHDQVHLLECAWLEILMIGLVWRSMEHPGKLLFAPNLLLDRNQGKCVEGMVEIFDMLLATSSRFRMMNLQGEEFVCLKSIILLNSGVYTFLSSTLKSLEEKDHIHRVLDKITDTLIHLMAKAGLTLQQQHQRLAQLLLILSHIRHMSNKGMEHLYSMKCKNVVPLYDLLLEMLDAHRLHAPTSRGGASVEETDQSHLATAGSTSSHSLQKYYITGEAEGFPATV

[6] = molecular target: T1, Glucocorticoid receptor (Homo sapiens); assay: Antagonist activity at human GR receptor expressed in human HeLa cells assessed as inhibition of DHT-induced response after 40 hrs by luciferase/beta-galactosidase-based reporter gene assay; format: functional, cell-based
[7] = molecular target: T6, 17-beta-hydroxysteroid dehydrogenase type 1 (Homo sapiens) (UniProt P14061); assay: Inhibition of human recombinant 17-beta-HSD1 expressed in human HeLa cells using estrone as substrate preincubated for 30 mins prior substrate addition measured after 120 mins by spectrophotometry; format: cell-based
T6 sequence (whole entry): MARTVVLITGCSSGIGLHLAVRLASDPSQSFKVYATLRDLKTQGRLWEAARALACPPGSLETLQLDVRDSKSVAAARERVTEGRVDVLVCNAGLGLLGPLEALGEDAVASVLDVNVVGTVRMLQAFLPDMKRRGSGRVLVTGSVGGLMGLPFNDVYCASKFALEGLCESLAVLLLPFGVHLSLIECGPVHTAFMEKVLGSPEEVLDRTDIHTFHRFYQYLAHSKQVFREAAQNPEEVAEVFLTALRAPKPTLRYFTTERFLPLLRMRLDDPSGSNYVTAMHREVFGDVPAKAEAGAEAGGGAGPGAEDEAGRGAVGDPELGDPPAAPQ

[8] = molecular target: T5, Estrogen receptor (Homo sapiens); assay: Antagonist activity at human ERalpha receptor expressed in human HeLa cells assessed as inhibition of DHT-induced response after 40 hrs by luciferase/beta-galactosidase-based reporter gene assay; format: functional, cell-based
[9] = molecular target: T2, Androgen receptor (Homo sapiens); assay: Agonist activity at human androgen receptor expressed in human HeLa cells assessed as DHT-induced response after 40 hrs by luciferase/beta-galactosidase-based reporter gene assay; format: functional, cell-based

SMILES | Activity [1] | Activity [2] | inhibition [3] | IC50 [4] [µM] | Activity [5] | Activity [6] | inhibition [7] | Activity [8] | Activity [9]
O=C(c1ccc(N2C(=O)O/C(=C\c3ccc(O)c(Br)c3)C2=O)cc1)N1CCOCC1 | inactive | inactive | inactive | 0.3 | inactive | inactive | inactive | inactive | inactive
COc1ccc(N2C(=O)/C(=C/c3ccc(O)c(Br)n3)OC2=S)cc1 | inactive | inactive | inactive | 0.042 | inactive | inactive | inactive | inactive | inactive
O=C1/C(=C/c2ccc(O)c(Br)c2)OC(=S)N1c1ccc(F)cc1 | inactive | inactive | inactive | 0.002 | inactive | inactive | inactive | inactive | inactive
N#Cc1ccc(N2C(=O)/C(=C/c3ccc(O)c(Br)c3)OC2=S)cc1 | inactive | inactive | inactive | 0.019 | inactive | inactive | inactive | inactive | inactive
CN(C)c1ccc(N2C(=O)O/C(=C\c3ccc(O)c(Br)c3)C2=O)cc1 | inactive | inactive | inactive | 0.025 | inactive | inactive | inactive | inactive | inactive
COc1ccc(N2C(=O)O/C(=C\c3ccc(O)c(Br)c3)C2=O)cn1 | inactive | inactive | inactive | 0.004 | inactive | inactive | inactive | inactive | inactive
COc1ccc(N2C(=O)/C(=C/c3ccc(O)c(Cl)c3)OC2=S)cc1 | inactive | inactive | inactive | 0.004 | inactive | inactive | inactive | inactive | inactive
O=C1/C(=C/c2ccc(O)c(Br)c2)OC(=S)N1c1ccccc1 | inactive | inactive | inactive | 0.006 | inactive | inactive | inactive | inactive | inactive
O=C1/C(=C/c2ccc(O)c(Br)c2)OC(=S)N1c1ccc(C(F)(F)F)cc1 | inactive | inactive | inactive | 0.003 | inactive | inactive | inactive | inactive | inactive
CC(=O)Nc1ccc(N2C(=O)O/C(=C\c3ccc(O)c(Br)c3)C2=O)cc1 | inactive | inactive | inactive | 0.057 | inactive | inactive | inactive | inactive | inactive
Cc1ccc(N2C(=O)O/C(=C\c3ccc(O)c(Br)c3)C2=O)cn1 | inactive | inactive | inactive | 0.067 | inactive | inactive | inactive | inactive | inactive
